Source: patent US7718385B2, “Bioactivation of alkylating agents for cancer treatment” (priority 2003, dated 2010)

Columns and labels:
PC-3 = details: PC-3, Prostate, cited from earlier work
HCT-116 = details: HCT-116, Colon, cited from earlier work
COLO 205 = details: COLO 205, Colon, cited from earlier work
A498 = details: A498, Renal, cited from earlier work
NCI-H226 = details: NCI-H226, Non-Small Cell Lung, cited from earlier work
HS 578T = details: cited from earlier work
MALME-3M = details: cited from earlier work
MOLT-4 = details: MOLT-4, Leukemia, cited from earlier work
recombinant rat AOR = recombinant rat AOR (Rattus norvegicus, UniProt P97584, Q160G/Q263G/Q264G/Q276G)
Sequence of recombinant rat AOR (P97584 whole entry Q160G/Q263G/Q264G/Q276G): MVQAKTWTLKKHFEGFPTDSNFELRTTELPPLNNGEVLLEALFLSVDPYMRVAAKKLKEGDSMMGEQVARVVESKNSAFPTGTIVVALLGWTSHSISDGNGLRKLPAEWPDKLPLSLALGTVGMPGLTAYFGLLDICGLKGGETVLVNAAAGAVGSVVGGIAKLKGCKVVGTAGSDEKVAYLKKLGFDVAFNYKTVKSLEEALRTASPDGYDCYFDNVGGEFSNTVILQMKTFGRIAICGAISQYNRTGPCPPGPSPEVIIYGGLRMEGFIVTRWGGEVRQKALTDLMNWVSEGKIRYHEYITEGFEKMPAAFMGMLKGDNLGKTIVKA
Protocol: Varied concentrations of illudin M were added to a 200 μl 0.5× phosphate buffered saline (PBS) solution containing 115 ng of AOR and 43.4 nmoles NADPH, and incubated for 1 minute at 37° C. Reactions were then extracted with ethyl acetate containing piperine (internal standard), dried under vacuum, resuspended in HPLC buffer A (60% acetonitrile: 40% water), and injected into a Hewlett-Packard 1050 HPLC system equipped with a Luna C18 column (Phenomenex Inc.). Metabolites were separated using buffer A at a flow rate of 1 ml/min and quantified using diode array detection at 205 nm and previously reported extinction coefficients (Tanaka, et al., 1990). Vmax and Km were calculated using the HYPER program.
Rates were quantified from metabolite peak areas using reported extinction coefficients (Tanaka, et al., 1990; McMorris, et al., 1999).

SW-620 = details: SW-620, Colon, cited from earlier work
K-562 = details: K-562, Leukemia, cited from earlier work
RPMI-8226 = details: RPMI-8226, Leukemia, cited from earlier work
SF-268 = details: SF-268, Central Nervous System, cited from earlier work
SF-539 = details: SF-539, Central Nervous System, cited from earlier work
SN12C = details: cited from earlier work
T-47D = details: cited from earlier work
HCT-15 = details: HCT-15, Colon, cited from earlier work
NCI-H522 = details: NCI-H522, Non-Small Cell Lung, cited from earlier work
NCI-H460 = details: NCI-H460, Non-Small Cell Lung; cited from earlier work
786-0 = details: 786-0, Renal, cited from earlier work
HT29 = details: HT29, Colon, cited from earlier work

## CC1=C(CO)C2=C(C)C3(CC3)[C@@](C)(O)C(=O)C2=C1 [Irofulven, 6-hydroxymethylacylfulvene]
PC-3
  GI50: 251 nM
  TGI: 1.26E−06
  log(GI50): −6.6
  log(LC50): −4.5
  log(TGI): −5.9
PC-3; read-out: LC50
  CC50: 31600 nM
HCT-116
  GI50: 200 nM
  TGI: 5.01E−07
  log(GI50): −6.7
  log(LC50): −4.5
  log(TGI): −6.3
HCT-116; read-out: LC50
  CC50: 31600 nM
COLO 205
  GI50: 158 nM
  TGI: 5.01E−07
  log(GI50): −6.8
  log(LC50): −6.2
  log(TGI): −6.3
COLO 205; read-out: LC50
  CC50: 631 nM
A498
  GI50: 200 nM
  TGI: 5.01E−07
  log(GI50): −6.7
  log(LC50): −5.7
  log(TGI): −6.3
A498; read-out: LC50
  CC50: 2000 nM
NCI-H226
  GI50: 200 nM
  TGI: 5.01E−07
  log(GI50): −6.7
  log(LC50): −5.2
  log(TGI): −6.3
NCI-H226; read-out: LC50
  CC50: 6310 nM
HS 578T; Breast
  GI50: 316 nM
  TGI: 1.58E−06
  log(GI50): −6.5
  log(LC50): −4.7
  log(TGI): −5.8
HS 578T; read-out: LC50, Breast
  CC50: 20000 nM
MALME-3M; Melanoma
  GI50: 200 nM
  TGI: 5.01E−07
  log(GI50): −6.7
  log(LC50): −5.6
  log(TGI): −6.3
MALME-3M; read-out: LC50, Melanoma
  CC50: 2510 nM
MOLT-4
  GI50: 794 nM
  TGI: 2.00E−05
  log(GI50): −6.1
  log(TGI): −4.7
MOLT-4; read-out: LC50
  CC50: ≥ 100000 nM
Recombinant rat AOR
  Vmax: 275 nmol/min/mg
Recombinant rat AOR; relative to the illudins
  decrease in the rate of metabolism by AOR: 100 fold
SW-620
  GI50: 631 nM
  TGI: 3.16E−05
  log(GI50): −6.2
  log(TGI): −4.5
SW-620; read-out: LC50
  CC50: ≥ 100000 nM
K-562
  GI50: 3160 nM
  TGI: 1.00E−04
  log(GI50): −5.5
  log(TGI): −4
K-562; read-out: LC50
  CC50: ≥ 100000 nM
RPMI-8226
  GI50: 31600 nM
  TGI: 7.94E−05
  log(GI50): −4.5
  log(TGI): −4.1
RPMI-8226; read-out: LC50
  CC50: ≥ 100000 nM
SF-268
  GI50: 251 nM
  TGI: 2.51E−06
  log(GI50): −6.6
  log(TGI): −5.6
SF-268; read-out: LC50
  CC50: ≥ 100000 nM
SF-539
  GI50: 158 nM
  TGI: 5.01E−07
  log(GI50): −6.8
  log(LC50): −6.2
  log(TGI): −6.3
SF-539; read-out: LC50
  CC50: 631 nM
SN12C; Renal
  GI50: 398 nM
  TGI: 5.01E−06
  log(GI50): −6.4
  log(LC50): −4.3
  log(TGI): −5.3
SN12C; read-out: LC50, Renal
  CC50: 50100 nM
T-47D; Breast
  GI50: 200 nM
  TGI: 2.51E−06
  log(GI50): −6.7
  log(TGI): −5.6
T-47D; read-out: LC50, Breast
  CC50: ≥ 100000 nM
HCT-15
  GI50: 316 nM
  TGI: 5.01E−06
  log(GI50): −6.5
  log(TGI): −5.3
HCT-15; read-out: LC50
  CC50: ≥ 100000 nM
NCI-H522
  GI50: 158 nM
  TGI: 6.31E−07
  log(GI50): −6.8
  log(LC50): −5.1
  log(TGI): −6.2
NCI-H522; read-out: LC50
  CC50: 7940 nM
NCI-H460
  GI50: 50.1 nM
  TGI: 2.51E−07
  log(GI50): −7.3
  log(TGI): −6.6
786-0
  GI50: 200 nM
  TGI: 5.01E−07
  log(GI50): −6.7
  log(LC50): −5.7
  log(TGI): −6.3
786-0; read-out: LC50
  CC50: 2000 nM
HT29
  GI50: 251 nM
  TGI: 1.26E−06
  log(GI50): −6.6
  log(TGI): −5.9
HT29; read-out: LC50
  CC50: ≥ 100000 nM
